Assay [1] can be described thus: Dark Avoidance Assay (scopolamine induced memory deficit reversal). The assay is classed as in vivo, mice. As to conditions: Mus musculus, read-out: % of Animals With Scopolamine Induced Memory Deficit Reversal; for responders at 3 mg/kg: dose 3.0 mg/kg of body wt; for responders at 0.63 mg/kg: dose 0.63 mg/kg of body wt; for responders at 1.25 mg/kg: dose 1.25 mg/kg of body wt; for responders at 0.3 mg/kg: dose 0.3 mg/kg of body wt. The protocol: The compounds of the present invention are also useful in the treatment of various memory dysfunctions characterized by decreased cholinergic function such as Alzheimer's Disease.
In this assay, mice are tested for their ability to remember an unpleasant stimulus for a period of 24 hours. A mouse is placed in a chamber that contains a dark compartment; a strong incandescent light drives it to the dark compartment, where an electric shock is administered through metal plates on the floor. The animal is removed from the testing apparatus and tested again, 24 hours later, for the ability to remember the electric shock.
If scopolamine, an anticholinergic that is known to cause memory impairment, is administered before an animal's initial exposure to the test chambers, the animal re-enters the dark compartment shortly after being placed in the test chamber 24 hours later. The effect of scopolamine is blocked by an active test compound, resulting in a greater interval before re-entry into the dark compartment.
The results for an active compound are expressed as the percent of a group of animals in which the effect of scopolamine is blocked, as manifested by an increased interval between being placed in the test chamber and re-entering the dark compartment. Presented in Table 2 is the activity of some of the compounds of the invention in this assay.

Assay [2] can be described thus: phenyl-para-quinone writhing assay in mice (analgesia). In kind it is in vivo. To be noted: for ED50: Mus musculus, sc, read-out: ED50 of Writhing (subcutaneous dose at which 50% of the phenyl-para-quinone induced writhing is inhibited). A general note: An intraperitoneal irritant provokes the stretching counted in writhing tests.
A short description of assay [3]: supramaximal electroshock (SES) assay (anticonvulsant activity). As to conditions: Mus musculus, ip, 0.5 h; male mice, i.p., 30 minute pretreat; read-out: ED50 (anticonvulsant, protection from extensor tonus). In kind it is in vivo, male mouse (Charles River, CD-1). On the procedure: The compounds of the invention are also useful as anticonvulsants due to their anticonvulsant activity in mammals. Anticonvulsant activity is measured in the male mouse using the supramaximal electroshock (SES) assay described in Arch. Int. Pharmacodyn. 92:97-107, 1952. In this procedure, groups of male mice (Charles River, CD-1, 18-30 gm) are used. Drugs are prepared using distilled water and, if insoluble, a surfactant is added. Control animals receive vehicle. Drugs are routinely administered interperitoneally (i.p.) The dosage volume is 10 ml/kg. A primary screen is given a 30 minute pretreat. The animals' eyes are placed across the output terminals of an A.C. shocker that delivers 206 volts rms for 300 msec. Electrode paste coats the animals' eyes at the point of contact with the terminals. […] Protection is expressed as normalized percent inhibition relative to vehicle control.
In general terms: Protection in the maximal electroshock model is a classic sign of anticonvulsant action.

The mark [4] stands for this setting: mice, dose 1.0 mg/kg of body wt, retest after 24 hours.

In general, ED50 refers to the dose that gives a 50% effect, or the effect in half of the subjects.

The structures appear in SMILES notation. Where two headings read alike, the source gives them in different places.

Turning to `CCCN(c1ccncc1)N1C(=O)C2(CCN(C)CC2)c2ccccc21` [1'Methyl-1-(propyl-4-pyridinylamino)spiro-[3H-indole-3,4'-piperidin]-2(1 H)-one], the responders at 1 mg/kg in assay [1] (24 h) worked out at 20%.
Regarding `O=C1Cc2ccccc2N1Nc1ccncc1F` [1,3-Dihydro-1-(3-fluoro-4-pyridinylamino)-2H-indol-2-one], the responders at 1 mg/kg in assay [1] (setting [4]) was 27%. Moreover, the responders at 3 mg/kg in assay [1] (mice, retest after 24 hours) is 27%.
For the compound `O=C1Cc2ccccc2N1Nc1ccncc1` [1,3-Dihydro-1-(4-pyridinylamino)-2H-indol-2-one], the responders at 0.31 mg/kg in assay [1] (mice, dose 0.31 mg/kg of body wt, retest after 24 hours) came out at 27%. In addition, in assay [1] (mice, retest after 24 hours), the responders at 0.63 mg/kg came out at 27% and the responders at 1.25 mg/kg is 27%. In addition, the ED50 in assay [2] amounted to 0.69 mg/kg.
As for `CCCN(c1ccncc1)N1C(=O)Cc2ccccc21` [1,3-Dihydro-1-(propyl-4-pyridinylamino)-2H-indol-2-one], in assay [3], the ED50 came to 15.9 mg/kg. In addition, in assay [1] (mice, retest after 24 hours), the responders at 1.25 mg/kg came out at 27%. Also, the “% Inhibition of Writhing (% decrease in writhing at a given dose)” value in assay [2] (20 mg/kg, s.c.) is -58%.
As for `CCCN(c1ccncc1F)N1C(=O)Cc2ccccc21` [1,3-Dihydro-1-[(3-fluoro-4-pyridinyl)-propylamino]-2H-indol-2-one], in assay [1] (mice, retest after 24 hours), the responders at 0.3 mg/kg is 20% and the responders at 3 mg/kg was found to be 20%.
For the compound `CC1C(=O)N(Nc2ccncc2F)c2ccccc21` (stereo not drawn) [1,3-Dihydro-1-[(3-fluoro-4-pyridinyl)amino]-3-methyl-2H-indol-2-one hemifumarate], in assay [1] (mice, retest after 24 hours), the responders at 0.3 mg/kg is 27% and the responders at 3 mg/kg was 20%.
In the case of `CCCN(c1ccncc1)N1C(=O)C(C)(C)c2ccccc21` [1,3-Dihydro-3,3-dimethyl-1-(propyl-4-pyridinylamino)-2H-indol-2-one], in assay [3], the ED50 is 30.7 mg/kg. Also, the responders at 0.3 mg/kg in assay [1] (mice, retest after 24 hours) stood at 20%.
Regarding `CCCN(c1ccncc1)N1C(=O)C2(Cc3ccccc3C2)c2ccccc21` [1,3-dihydro-1'-(propyl-4-pyridinylamino)spiro[2H-indene-2,3'-[3H]indol]-2'(1'H)-one], the responders at 3 mg/kg in assay [1] (mice, retest after 24 hours) was 25%.
As for `CCCN(c1ccncc1F)N1C(=O)C(C)(C)c2ccccc21` [1,3-dihydro-3,3-dimethyl-1-[4-(3-fluoropyridinyl)propylamino]2H-indol-2-one], the responders at 0.3 mg/kg in assay [1] (mice, retest after 24 hours) worked out at 21%. Besides, in assay [1] (setting [4]), the responders at 1 mg/kg was 27%.
Turning to `NN1C(=O)C(Cc2ccncc2)(Cc2ccncc2)c2ccccc21` [1-Amino-3,3-bis(4-pyridinylmethyl)-1,3-dihydro-2H-indol-2-one], in assay [1] (mice, retest after 24 hours), the responders at 0.3 mg/kg worked out at 21%.
As for `CCC1(c2ccccc2)C(=O)NC(=O)NC1=O` [Phenobarbital, reference compound], the 50% effective dose (ED50) in assay [3] came to 8.4 mg/kg.
With `CC[C@@H]1C(=O)OC[C@@H]1Cc1cncn1C` [Pilocarpine, reference compound], the responders at 1.25 mg/kg in assay [1] (mice, retest after 24 hours) turned out to be 19%.
In the case of `O=C(O)c1ccccc1O` [Salicylic Acid, reference compound], the 50% effective dose (ED50) in assay [2] was found to be 3.28 mg/kg.
Turning to `Nc1c2c(nc3ccccc13)CCCC2` [Tacrine, reference compound], the responders at 0.63 mg/kg in assay [1] (mice, retest after 24 hours) was found to be 13%.

For the origin of these results see patent publication US5686626A, “1,3-dihydro-1-amino-2H-indol-2-ones” (Hoechst Marion Roussel, Inc., priority 1995, dated 1997).
